Laboratory results: patent US20240207427A1, “SELECTIVE DRUG RELEASE FROM INTERNALIZED CONJUGATES OF BIOLOGICALLY ACTIVE COMPOUNDS” (priority 2021, published 2024)
Like-named read-outs stand apart in the source and are kept apart here.

Legend:
[1] = test system: Hodgkin's lymphoma cells (L540cy); assay: In vitro potency (CellTiter-Glo, 96 h), L540cy; assay type: cell-based
Summary of the method: (§1)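 Cells in log-phase growth seeded 24 h in RPMI 1640 with 20% FBS, then exposed to serially diluted ADC or CPT free drug for 96 h at 37 °C. Growth inhibition read by CellTiter-Glo luminescence; IC50 reported in ng/mL or nmol/L.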

[2] = test system: multiple myeloma cells (MM.1R); assay: In vitro potency (CellTiter-Glo, 96 h), MM.1R; assay type: cell-based; conditions: camptothecin drugs, Table 13, CellTiter-Glo after 96 h exposure
Protocol: (§2) In vitro potency was assessed on multiple cancer cell lines. All cell lines were authenticated by STR profiling at IDEXX Bioresearch and cultured for no more than 2 months after resuscitation. Cells cultured in log-phase growth were seeded for 24 hours in 96-well plates containing […] RPMI 1640 supplemented with 20% FBS. Following addition of test articles, cells were incubated with test articles for 4 days at 37 0° C. After 96 hours, growth inhibition was assessed by CellTiterGlo® (Promega, Madison, WI) and luminescence was measured on a plate reader.
(§3) Cell viability was determined by CellTiter-Glo staining after 96 h exposure to the compound. ND=Not Determined. The cancer cell lines tested are renal carcinoma cells (786-0), melanoma cells (A2058), pancreatic cancer cells (BxPC3), non-small-cell lung cancer cells (Calu1), anaplastic large cell lymphoma cells (DEL, DELBVR, Karpas299), Hodgkin's lymphoma cells (L540cy), (Ls 174T), breast cancer cells (MDA-MB-231), acute myeloid leukemia cells (MOLM-13), B-lymphocyte cancer cells (SU-DHL4), multiple myeloma cells (MM.1R), (U266), and melanoma cells (SK-MEL-5).
as §2, with “FBS. Serial dilutions of antibody-drug conjugates in cell culture media were prepared at 4× working concentrations, and 50 μL of each dilution was added to the 96-well plates.” for “FBS.”, “37°” for “37 0°”
(§4) In vitro potency was assessed on multiple cancer cell lines. […] After 96 hours, growth inhibition was assessed by CellTiterGlo® (Promega, Madison, WI) and luminescence was measured on a plate reader.

[3] = test system: acute myeloid leukemia cells (MOLM-13); assay: In vitro potency (CellTiter-Glo, 96 h), MOLM-13; assay type: cell-based; conditions: Homo sapiens, MOLM-13, 96 h
Summary of the method: (§5)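 Growth inhibition after 96 h at 37 °C with test article, measured by luminescence; cells in RPMI 1640, 20% FBS.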

[4] = test system: renal carcinoma cells (786-O); assay: In vitro potency (CellTiter-Glo, 96 h), 786-O; assay type: cell-based; conditions: Homo sapiens, 786-0, 96 h
Summary of the method: as §1

[5] = test system: melanoma cells (SK-MEL-5); assay: In vitro potency (CellTiter-Glo, 96 h), SK-MEL-5; assay type: cell-based; conditions: Homo sapiens, camptothecin drugs, Table 13, CellTiter-Glo after 96 h exposure
Protocol: as §2, §3
as §2, with “FBS. Serial dilutions of antibody-drug conjugates in cell culture media were prepared at 4× working concentrations, and 50 μL of each dilution was added to the 96-well plates.” for “FBS.”, “37°” for “37 0°”
as §4

[6] = test system: B-lymphocyte cancer cells (SU-DHL4); assay: In vitro potency (CellTiter-Glo, 96 h), SU-DHL-4; assay type: cell-based; conditions: Homo sapiens, SU-DHL-4, 96 h
Summary of the method: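 Authenticated lines (STR), used within 2 months of resuscitation, were seeded 24 h before treatment. Exposure to ADC dilutions lasted 96 h at 37 °C in RPMI 1640 with 20% FBS; viability was quantified luminescently.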

U266 cells = assay: In vitro potency (CellTiter-Glo, 96 h), U266; assay type: cell-based; conditions: Homo sapiens, U-266; camptothecin drugs, Table 13; CellTiter-Glo after 96 h exposure
Protocol: as §2, §3
as §2, with “FBS. Serial dilutions of antibody-drug conjugates in cell culture media were prepared at 4× working concentrations, and 50 μL of each dilution was added to the 96-well plates.” for “FBS.”, “37°” for “37 0°”
as §4

[7] = test system: pancreatic cancer cells (BxPC3); assay: In vitro potency (CellTiter-Glo, 96 h), BxPC3; assay type: cell-based; conditions: Homo sapiens, BXPC-3, 96 h
Summary of the method: as §5

[8] = test system: anaplastic large cell lymphoma cells (DEL); assay: In vitro potency (CellTiter-Glo, 96 h), DEL; assay type: cell-based
Summary of the method: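 Medium: RPMI 1640 + 20% FBS. Pre-seeding: 24 h. Treatment: ADC or CPT free drug serial dilutions, 96 h, 37 °C. Read-out: luminescence; IC50 in ng/mL and nmol/L.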

[9] = test system: anaplastic large cell lymphoma cells (DELBVR); assay: In vitro potency (CellTiter-Glo, 96 h), DELBVR; assay type: cell-based
Summary of the method: as §1

[10] = test system: anaplastic large cell lymphoma cells (Karpas299); assay: In vitro potency (CellTiter-Glo, 96 h), Karpas299; assay type: cell-based; conditions: Homo sapiens, KARPAS-299, 96 h, 96 h
Summary of the method: as §1

Ls174T cells = assay: In vitro potency (CellTiter-Glo, 96 h), Ls174T; assay type: cell-based; conditions: Homo sapiens, LS174T, 96 h
Summary of the method: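 Log-phase cells were seeded for 24 h in RPMI 1640 with 20% FBS, then exposed to serially diluted antibody-drug conjugates or free camptothecin drug for 4 days at 37 °C. Growth inhibition was read by luminescence, and IC50 values were reported in ng/mL and nmol/L.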

melanoma cells (A2058) = assay: In vitro potency (CellTiter-Glo, 96 h), A2058; assay type: cell-based; conditions: Homo sapiens, A2058, 96 h, read-out: A2058 IC50
Summary of the method: (§6)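 Following a 24 h seeding period in 20% FBS-supplemented RPMI 1640, log-phase cells receive graded concentrations of conjugate. Incubation runs for 4 days at 37 °C, after which luminescence is recorded and IC50 calculated in ng/mL.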

[11] = test system: non-small-cell lung cancer cells (Calu1); assay: In vitro potency (CellTiter-Glo, 96 h), Calu1; assay type: cell-based; conditions: Homo sapiens, Calu-1, 96 h, read-out: Calu1 IC50
Summary of the method: as §6

[12] = test system: breast cancer cells (MDA-MB-231); assay: In vitro potency (CellTiter-Glo, 96 h), MDA-MB-231; assay type: cell-based; conditions: Homo sapiens, MDA-MB-231, 96 h, 96 h
Summary of the method: as §1

[13] = test system: h00-5, non-binding control antibody h00 conjugated with mp-D-Leu-Ala-Glu-PABC-MMAE (Drug Linker compound 5)
[14] = test system: h00-37, non-binding control antibody h00 conjugated with mp-val-cit-PABC-MMAE (compound 37)
[15] = test system: h00-7, non-binding control antibody h00 conjugated with mp-Leu-Ala-Glu-PABC-MMAE (Drug Linker compound 7)
[16] = read-out: IC50 L540cy, camptothecin drugs, Table 13, CellTiter-Glo after 96 h exposure
[17] = read-out: IC50 MOLM-13, camptothecin drugs, Table 13, CellTiter-Glo after 96 h exposure
[18] = read-out: IC50 786-O, camptothecin drugs, Table 13, CellTiter-Glo after 96 h exposure
[19] = read-out: IC50 SU-DHL-4, camptothecin drugs, Table 13, CellTiter-Glo after 96 h exposure
[20] = read-out: IC50 BxPC3, camptothecin drugs, Table 13, CellTiter-Glo after 96 h exposure

`CC[C@@]1(O)C(=O)OCc2c1cc1n(c2=O)Cc2c-1nc1cc3c(cc1c2CNc1ccc(N)cc1)OCO3` [Compound 7ab] gave an IC50 [1, 16] of 0.4 nM, an IC50 [2] of 0.4 nM and an IC50 [3, 17] of 0.3 nM. It also gave an IC50 [4, 18] of 1 nM, an IC50 [5] of 1 nM and an IC50 [6, 19] of 0.4 nM. For the same compound, the IC50 (U266 cells) was 2 nM and the IC50 [7, 20] was 1 nM.

Work on `CC[C@@]1(O)C(=O)OCc2c1cc1n(c2=O)Cc2c-1nc1cc3c(cc1c2CNc1ccccc1N)OCO3` [Compound 7ac] yielded an IC50 [1, 16] of 2 nM, an IC50 [2] of 2 nM and an IC50 [3, 17] of 1 nM. For the same compound, the IC50 [4, 18] was 2 nM, the IC50 [5] was 4 nM and the IC50 [6, 19] was 1 nM. For the same compound, the IC50 (U266 cells) was 8 nM and the IC50 [7, 20] was 5 nM.

With `CC[C@@]1(O)C(=O)OCc2c1cc1n(c2=O)Cc2c-1nc1cc3c(cc1c2CNc1cccc(N)c1)OCO3` [Compound 7ad] the IC50 [1, 16] was 2 nM, the IC50 [2] was 2 nM and the IC50 [3, 17] was 1 nM. It also gave an IC50 [4, 18] of 5 nM, an IC50 [5] of 7 nM and an IC50 [6, 19] of 2 nM. For the same compound, the IC50 (U266 cells) was 8 nM and the IC50 [7, 20] was 6 nM.

For `CC[C@@]1(O)C(=O)OCc2c1cc1n(c2=O)Cc2c-1nc1cc3c(cc1c2CN1CCC(NC(=O)OC(C)(C)C)CC1)OCO3` [Compound 7y], the IC50 ([1]; camptothecin free drug, read-out: L540cy IC50) was 15 nM, the IC50 ([8]; camptothecin free drug, read-out: DEL IC50) was 8 nM and the IC50 ([9]; camptothecin free drug, read-out: DELBVR IC50) was 14 nM. The IC50 ([3]; camptothecin free drug, 96 h, read-out: MOLM-13 IC50) was 68 nM, the IC50 ([10]; camptothecin free drug, read-out: Karpas299 IC50) was 36 nM and the IC50 ([4]; camptothecin free drug, 96 h, read-out: 786-O IC50) was 31 nM. The IC50 (Ls174T cells; camptothecin free drug, read-out: Ls174T IC50) was 17 nM, the IC50 ([6]; camptothecin free drug, 96 h, read-out: SU-DHL-4 IC50) was 23 nM and the IC50 (melanoma cells (A2058); camptothecin free drug, 96 h) was 7 nM. The IC50 ([11]; camptothecin free drug, 96 h) was 896 nM, the IC50 ([7]; camptothecin free drug, 96 h, read-out: BxPC3 IC50) was 28 nM and the IC50 ([12]; camptothecin free drug, read-out: MDAMB231 IC50) was 140 nM.

`CCc1c(C)c(F)cc2nc3c(c(CN)c12)Cn1c-3cc2c(c1=O)COC(=O)[C@]2(O)CC` [Compound 10, (S)-11-(aminomethyl)-4,10-diethyl-8-fluoro-4-hydroxy-9-methyl-1,12-dihydro-14H-pyrano[3′,4′:6,7]indolizino[1,2-b]quinoline-3,14(4H)-dione] was tested, and the IC50 ([1]; read-out: L540cy IC50, Table 28, CPT free drugs, Hodgkin's lymphoma cells L540cy, CellTiter-Glo) was 51 nM, the IC50 ([8]; read-out: DEL IC50, Table 28, CPT free drugs, anaplastic large cell lymphoma cells DEL, CellTiter-Glo) was 7 nM and the IC50 ([9]; read-out: DELBVR IC50, Table 28, CPT free drugs, anaplastic large cell lymphoma cells DELBVR, CellTiter-Glo) was 15 nM. The IC50 ([3]; read-out: MOLM-13 IC50, Table 28, CPT free drugs, acute myeloid leukemia cells MOLM-13, 96 h, CellTiter-Glo) was 149 nM, the IC50 ([10]; read-out: Karpas299 IC50, Table 28, CPT free drugs, anaplastic large cell lymphoma cells Karpas299, CellTiter-Glo) was 57 nM and the IC50 ([4]; read-out: 786-O IC50, Table 28, CPT free drugs, renal carcinoma cells 786-O, 96 h, CellTiter-Glo) was 54 nM. The IC50 (Ls174T cells; read-out: Ls174T IC50, Table 28, CPT free drugs, Ls174T cells, CellTiter-Glo) was 33 nM, the IC50 ([6]; read-out: SU-DHL-4 IC50, Table 28, CPT free drugs, B-lymphocyte cancer cells SU-DHL4, 96 h, CellTiter-Glo) was 15 nM and the IC50 (melanoma cells (A2058)) was 33 nM. It also gave an IC50 [11] of 95 nM, an IC50 ([7]; read-out: BxPC3 IC50, Table 28, CPT free drugs, pancreatic cancer cells BxPC3, 96 h, CellTiter-Glo) of 64 nM and an IC50 ([12]; read-out: MDAMB231 IC50, Table 28, CPT free drugs, breast cancer cells MDA-MB-231, CellTiter-Glo) of 59 nM.

With Cathepsin B the “percentage of drug cleaved from the heavy chain (QToF mass spectrometry after 3 h at 37 C, pH 4.5)” value [13] was “percentage of drug cleaved from the heavy chain of non-targeted ADCs 5 and 7 in vitro by Cathepsin B is similar to that found for non-targeted ADC 37”, the “percentage of drug cleaved from the heavy chain (QToF mass spectrometry after 3 h at 37 C, pH 4.5)” value [14] was “percentage of drug cleaved from the heavy chain of non-targeted ADCs 5 and 7 in vitro by Cathepsin B is similar to that found for non-targeted ADC 37” and the “percentage of drug cleaved from the heavy chain (QToF mass spectrometry after 3 h at 37 C, pH 4.5)” value [15] was “percentage of drug cleaved from the heavy chain of non-targeted ADCs 5 and 7 in vitro by Cathepsin B is similar to that found for non-targeted ADC 37”.

For neutrophil elastase, the “percentage of drug cleaved from the heavy chain (QToF mass spectrometry after 3 h at 37 C)” value [13] was “no proteolosis of h00-5 by neutrophil elastase was observed”, the “percentage of drug cleaved from the heavy chain (QToF mass spectrometry after 3 h at 37 C)” value [14] was “percentage of drug cleaved from the heavy chain of non-targeted ADC 5 in vitro by neutrophil elastase is lower than that found for non-targeted ADC 37” and the “percentage of drug cleaved from the heavy chain (QToF mass spectrometry after 3 h at 37 C)” value [15] was “the h00-5 conjugate ... has its heavy chain cleaved by neutrophil elastase to a significantly lower extent than h00-7”.
